According to patent publication US7473683B2, “Nonpolar thymidine analogs” (The Board of Trustees of the Leland Stanford Junior …, priority 2005, dated 2009):

What was measured:
[1] = system: DNA Pol I (Klenow fragment, exo-); experiment: steady-state kinetics of single nucleotide insertions, thymidine analogues in the template; format: biochemical, E. coli; set-up: efficiency: unit not given here; conditions: for rel. efficiency: relative to insertion of dATP opposite T
Method: In vitro steady-state kinetics. As polymerase substrates we used 28 mer/23 mer template-primer duplexes having the sequence (5′-ACT GXT CTCCCTATAGTGAGTCGTATTA [SEQ ID NO:1])·(5′-TAATACGACTCACTATAGGGAGA [SEQ ID NO:2]). Kinetics were measured at 37° C. in a buffer containing 10 mM Mg^2+. The primer was 5′ end-labeled and was extended by the polymerase in the presence of a single dNTP species over varied concentration and time. Products of single nucleotide insertions were resolved from unreacted primer by 20% denaturing gel electrophoresis, and were quantitated by autoradiography. Details of the kinetics experiments are given in the Supporting Data.
We chose DNA polymerase I (Klenow fragment, exonuclease-deficient) as an ideal candidate for initial study, as it is enzymatically well-characterized among replicative enzymes, and yet is relatively small and acts as a single subunit. We carried out kinetics studies of single nucleotide insertions in the steady state, using a gel electrophoresis-based assay.
Data for single nucleotide insertion kinetics in the steady-state. The enzyme was the Klenow fragment of DNA pol I from E. coli (exonuclease deficient). Methods are as described above.

[2] = system: normal and bypass (SOS-induced) polymerases in E. coli; experiment: bacterial replication assay: bypass efficiency and fidelity of analogs in single-stranded M13 vector passaged through E. coli; format: cell-based; conditions: for difference between the match and mismatch efficiency, increase in cells expressing induced bypass polymerases: SOS-induced bypass polymerases
Text: Bacterial replication assay. The assay for bypass efficiency fidelity is briefly described in the text.
To ascertain the influence of sub-Angstrom size increases on the template coding properties of the T analogs in vivo, we ligated oligonucleotides containing each analog into a single-stranded M13 vector, which were then passaged through E. coli and scored for bypass efficiency and mutagenesis (fidelity) as described. We chose E. coli deficient in AlkB to eliminate the possibility of metabolization of the H analog, which was subsequently found to have no influence on the results when compared with AlkB-proficient cells. Bypass experiments shown in FIG. 7 were performed in a competitive manner, and efficiencies were evaluated by PCR-based quantitation of successfully replicated progeny DNA. SOS-induction of bypass polymerases by prior irradiation of E. coli with ultraviolet light increased trans-analog synthesis approximately 2-fold for all thymine analogs. […] It is noteworthy that the difference between the match and mismatch efficiency increased in cells expressing induced bypass polymerases: L (0.2), B (8.0), I (17.4), implying higher fidelity for the larger isosteres for bypass polymerases, which may contain larger or looser active sites.

[3] = system: self-complementary strands (5′-XCGCGCG); experiment: dangling end thermal denaturation studies (base stacking) with self-complementary strands; format: physicochemical; conditions: for ΔG°37 (van't Hoff) / ΔH° (van't Hoff) / ΔS° (van't Hoff) / ΔΔG° stacking per base / Tm / ΔG°37 (fits) / ΔTm: dangling residue X in 5′-XCGCGCG; for Tm: 5.0 μM DNA strand, 1M NaCl, 10 mM phosphate buffer (pH 7.0), 0.1 mM EDTA, 280 nm; for ΔG°37 (fits): curve fits; for ΔTm: versus duplex with no dangling residue
Method: Thermal Denaturation Studies. After the samples were prepared in melting buffer (1M NaCl, 10 mM phosphate buffer (pH 7.0) with 0.1 mM EDTA), they were heated to 95° C. and allowed to slowly cool at a rate of 1° C./min to 5° C. The melting studies were carried out in Teflon-stoppered 1 cm path length quartz cells on a Varian Cary 1 UV-vis spectophotometer equipped with thermoprogrammer. Absorbance was monitored at 280 nm for stacking and at 260 nm for base pairing. […] The data were analyzed by the melt curve processing program, MeltWin v. 3.0. Melting temperatures (Tm) were determined by computer-fit of the first derivative of absorbance with respect to 1/T. Uncertainty in Tm is estimated at ±0.5° C. based on repetitions of experiments. Free-energy values were derived by two methods: (1) computer-fitting the denaturation data with an algorithm employing linear sloping baselines, using the two-state approximation for melting. Fits were excellent, with χ^−2 values of 10^−6 or better. (2) Van't Hoff thermodynamic parameters were derived from linear plots of 1/Tm vs In[CT] by measuring Tm as a function of concentration.
Sequence Design. We incorporated all five phosphoramidites into three new sequence contexts each for further study of pairing and stacking properties. The first is a self-complementary sequence designed to form a hexamer duplex, with the nonnatural base analogue overhanging (dangling) at the 5′ ends (Table 2). This same sequence context has been used previously in several studies of DNA base stacking. The second and third contexts comprise a pair of 12mer sequences that form duplexes with well-behaved two-state behavior. One strand is pyrimidine-rich, while the other is purine-rich; we substituted each analogue at a central position of each strand to test two widely varied sequence contexts for pairing effects.
Base Stacking. DNA base stacking stability has been correlated with the size of compounds when mono-, bi-, tri-, and tetra-cyclic base analogues were compared. To test this with the present series, which varies in size by a smaller amount, we examined the short self-complementary oligonucleotides by thermal denaturation experiments. The self-complementary duplexes contained the modified nucleosides as a 5′ overhanging base.

[4] = insertion of dATP opposite template base, 37° C.
[5] = insertion of dATP opposite template base, 37° C., 10 mM MgCl2, pH 7.5, normalized to lowest enzyme concentration
[6] = insertion of dATP opposite template base
[7] = insertion of dCTP opposite template base, 37° C.
[8] = insertion of dCTP opposite template base, 37° C., 10 mM MgCl2, pH 7.5, normalized to lowest enzyme concentration
[9] = insertion of dCTP opposite template base
[10] = insertion of dGTP opposite template base, 37° C.
[11] = insertion of dGTP opposite template base, 37° C., 10 mM MgCl2, pH 7.5, normalized to lowest enzyme concentration
[12] = insertion of dGTP opposite template base
[13] = insertion of dTTP opposite template base, 37° C.
[14] = insertion of dTTP opposite template base, 37° C., 10 mM MgCl2, pH 7.5, normalized to lowest enzyme concentration
[15] = insertion of dTTP opposite template base
[16] = Example 4: incorporating dATP opposite template thymidine analog

Compound | Km [1, 4] [µM] | Vmax [1, 5] [% · m in^−1] | rel. efficiency [1, 6] | Km [1, 7] [µM] | Vmax [1, 8] [% · m in^−1] | rel. efficiency [1, 9] | Km [1, 10] [µM] | Vmax [1, 11] [% · m in^−1] | rel. efficiency [1, 12] | Km [1, 13] [µM] | Vmax [1, 14] [% · m in^−1] | rel. efficiency [1, 15] | ΔG°37 (van't Hoff) [3] [kcal/mol] | ΔH° (van't Hoff) [3] [kcal/mol] | ΔS° (van't Hoff) [3] [cal/K · mol] | ΔΔG° stacking per base [3] [kcal/mol] | Tm [3] [°C] | ΔG°37 (fits) [3] [kcal/mol] | ΔTm [3] [°C] | difference between the match and mismatch efficiency, increase in cells expressing induced bypass polymerases ([2]; E. coli) | also measured
2,4-diHydrogentoluene | 20 ± 2 | 0.90 ± 0.18 | 3.5 × 10^−3 | 100 ± 60 | 0.031 ± 0.006 | 2.4 × 10^−5 | 600 ± 210 | 0.025 ± 0.007 | 3.2 × 10^−6 | 61 ± 37 | 0.062 ± 0.022 | 7.7 × 10^−5 | -9.7 ± 0.1 | -55.4 ± 2.0 | −147 ± 6 | 0.95 | 49.7 | -9.7 ± 0.0 | 11.1 | – | single-base deletions ([2]; E. coli, diminished when bypass polymerases were induced): evident; stabilization of the duplex by 5′ overhanging base (stacking) ([3]; compared with natural thymidine in the same position): least stabilizing of the series
Cc1ccc(Br)cc1Br [B, 2,4-dibromotoluene] | 21 ± 5 | 12 ± 1 | 4.4 × 10^−2 | 79 ± 33 | 0.038 ± 0.005 | 3.7 × 10^−5 | 220 ± 100 | 0.023 ± 0.005 | 7.7 × 10^−6 | 37 ± 12 | 0.20 ± 0.03 | 4.2 × 10^−4 | -10.8 ± 0.1 | -62.0 ± 2.1 | −165 ± 7 | 1.50 | 54.3 | -10.2 ± 0.0 | 15.7 | 8.0 | –
Cc1ccc(Cl)cc1Cl [L, 2,4-dichlorotoluene] | 3.3 ± 2.8 | 27 ± 5 | 6.3 × 10^−1 | 25 ± 13 | 0.021 ± 0.003 | 6.5 × 10^−5 | 190 ± 90 | 0.029 ± 0.007 | 1.2 × 10^−5 | 18 ± 18 | 0.13 ± 0.04 | 5.5 × 10^−4 | -10.0 ± 0.1 | -52.7 ± 1.2 | −138 ± 4 | 1.10 | 52.3 | -10.1 ± 0.0 | 13.7 | 0.2 | replication bypass efficiency ([2]; E. coli, normal and bypass polymerases, competitive, PCR-based quantitation of progeny DNA): maximum bypass; replication fidelity in E. coli ([2]; normal and bypass polymerases): maximal in vivo fidelity
Cc1c[nH]c(=O)[nH]c1=O [T, thymine, reference compound] | 1.9 ± 0.5 | 24 ± 1 | 1 | 46 ± 28 | 0.022 ± 0.006 | 3.7 × 10^−5 | – | 0.41 ± 0.15 | 5.6 × 10^−4 | 38 ± 38 | 0.012 ± 0.004 | 2.5 × 10^−5 | -9.1 ± 0.1 | -54.4 ± 4.1 | −146 ± 13 | 0.65 | 46.0 | -9.1 ± 0.1 | 7.4 | – | Km [1, 16]: 2.6 ± 0.75 µM; Vmax [1, 16]: 45.7931 ± 1.7743; efficiency [1, 16]: (1.86 ± 0.56) × 10^7; Rel. efficiency ([1]; Example 4: incorporating dATP opposite template thymidine analog, T template = 1): 1
difluorotoluene [reference compound] | 9.4 ± 2.9 | 24 ± 3 | 2.0 × 10^−1 | 33 ± 11 | 0.071 ± 0.011 | 1.7 × 10^−4 | 36 ± 12 | 0.0071 ± 0.0008 | 1.5 × 10^−5 | 22 ± 13 | 0.12 ± 0.03 | 4.2 × 10^−4 | -10.1 ± 0.0 | -54.5 ± 0.9 | −143 ± 3 | 1.15 | 52.4 | -10.1 ± 0.0 | 13.8 | – | –
